Results published in article PMC3867360, “Membrane Interactions of S100A12 (Calgranulin C)” (PLoS ONE, 2013).

Molecular target: T1, porcine S100A12 (Calgranulin C) (Sus scrofa, UniProt P80310)
T1 construct: pET28a-S100A12 in E. coli BL21(DE3); N-terminal or other His-tag cut with thrombin; non-covalent antiparallel homodimer; apo form in SPR
T1 sequence (P80310 1-92 limits assumed): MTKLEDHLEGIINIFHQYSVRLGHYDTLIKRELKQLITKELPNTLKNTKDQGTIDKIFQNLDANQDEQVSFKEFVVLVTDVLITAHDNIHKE
Assay: SPR, Biacore X, L1 sensorchip, immobilized LUVs
Type: binding
Text: SPR, Biacore X, L1 sensorchip, immobilized LUVs on porcine S100A12 (Calgranulin C)

SMILES	Kd [µM]
CCCCCCCCCCCCCCCC(=O)OC[C@H](COP(=O)([O-])OCC[N+](C)(C)C)OC(=O)CCCCCCCCCCCCCCC [DPPC, 1,2-dipalmitoyl-sn-glycero-3-phosphocholine]	5.9
CCCCCCCCCCCCCCCC(=O)OC[C@H](COP(=O)(O)OCC(O)CO)OC(=O)CCCCCCCCCCCCCCC (some centres unmarked) [DPPG, 1,2-dipalmitoyl-sn-glycero-3-phosphoglycerol]	0.63
